SMILES strings stand for the structures.

The subject of assay [1] is H3K27ac. In words: Immunofluorescence of H3K27ac at TEAD puncta in H1299 cells. It is filed as cell-based. Particulars: H1299 cells co-expressing YAP5SA, TEAD4-mTagBFP, mNeoGreen-SRC1; 20 μM. As to the method:
(§1) FIG. 7 M illustrates immunofluorescence staining with anti-H3K27ac (red,top) and anti-RNA pol II-S5P (red, bottom) in H1299 cells co-expressing YAP5SA, TEAD4-mTagBFP(blue) and mNeoGreen-SRC1(green) treated with 20 μM EVG. EVG impaired the SRC-1 LLPS. Transcription active markerH3K27ac and active RNA polymerase II phosphorylated at Ser 5 of CTD were not enriched in SRC-1 condensates. Scale bar, 5 μm.
(§2) Cells were fixed with 4% PFA for 15 minutes at room temperature. Cells were subsequently washed with PBS (3×3 min) and blocked in PBS/BSA (3%)/Triton X-100 (0.3%) at room temperature for 60 minutes. Cells were rinsed in PBS and incubated with anti-H3K27ac (ab4729, Abcam, 1:100), anti-RNA Pol II-S5P antibody (#04-1572, Millipore, 1:200) in PBS/BSA (1%) overnight at 4° C. Cells were washed with PBST (1×PBS+Tween20 0.2%, 3×5 min) and incubated with the secondary antibody for 1 hours at room temperature. After washing with PBST(3×5 min), cells were stained with DAPI.

In assay [2] the test system is SRC-1. Put plainly: Biolayer interferometry (BLI). It is filed as binding. Particulars: biotin labeled EVG on streptavidin biosensors, purified SRC-1 protein. As to the method:
FIG. 7R illustrates bio-layer interferometry (BLI) assays were performed with purified SRC-1 protein and EVG. Biotin labeled EVG was immobilized on the streptavidin biosensors and dipped into wells containing increasing concentrations of SRC-1 protein.
The binding between EVG and SRC1 was examined using BLI Octet RED96 (ForteEio Inc., Menlo Park, CA). Streptavidin biosensors (ForteBio Inc.) were pre-soaked (30 min) in assay buffer (20 mM TrisHCl pH8.0, 150 mM NaCl and 1% DMSO), then coated in an assay buffer containing 100 uM EVG-biotin for 7 min. As a control, sensors were incubated in an assay buffer containing 100 uM Biocytin, followed by a 6 min wash with assay buffer containing 1% BSA and 0.1% Tween20. Indicated concentrations of truncated SRC1protein ([…], 0 μg/ml) were diluted in assay buffer containing 1% BSA/0.1% Tween20 and flowed through biosensors coated with Bio-EVG or biocytin for 5 min. A 5 min dissociation was followed. Data was analyzed using OctetRED analysis software.
In general terms: Biolayer interferometry detects binding as a change in optical thickness at a sensor tip.

Assay [3] deals with RNA polymerase II phosphorylated at Ser 5 (CTD). In words: Immunofluorescence of RNA pol II-S5P at TEAD puncta in H1299 cells. It is filed as cell-based. To be noted: H1299 cells co-expressing YAP5SA, TEAD4-mTagBFP, mNeoGreen-SRC1; 20 μM. As to the method:
as §1, §2

As for `COc1cc2c(cc1Cc1cccc(Cl)c1F)c(=O)c(C(=O)O)cn2[C@H](CO)C(C)C` [EVG, 6-[(3-chloro-2-fluorophenyl)methyl]-1-[(2S)-1-hydroxy-3-methylbutan-2-yl]-7-methoxy-4-oxoquinoline-3-carboxylic acid], in assay [1], the “enrichment of H3K27ac at TEAD puncta” value is listed as “inhibited the enrichment”. Also, in assay [2], the “binding to SRC-1 (BLI)” value was “directly binds”. Further, the “RNA polymerase II phosphorylated at Ser 5 (CTD) at TEAD puncta” value in assay [3] is listed as “no effect”.
